According to patent US11807625B2, “Capsid inhibitors for the prevention of HIV” (Gilead Sciences, Inc., priority 2019, dated 2023):
Where two headings read alike, the source gives them in different places.

Assay: PK of compound of Formula (Ia) after single subcutaneous dose of solution formulations in beagle dogs
Type: in vivo
Details: male, beagle, dog, plasma, sc, 12 mg/kg; for AUC(0-t): male beagle dogs, single SC 12 mg/kg, mean ± SD, n = 3
Description: Formulations containing the compound of Formula (Ia), or a pharmaceutically acceptable salt thereof, were prepared as solutions and optionally administered subcutaneously or intramuscularly to rats, rabbits, and/or dogs.
(§1) A solution of about 400 mg/mL of the compound of Formula (Ia) having 17.00 w/w % water, 36.40 w/w % PEG 300, 35.20 w/w % of a sodium salt of a compound of Formula (Ia), 5.00 w/w % ethanol, and 6.40 w/w % poloxamer 188 was prepared. The solution was administered subcutaneously to male beagle dogs at a dose level of about 12 mg/kg and male Wistar Han rats at a dose level of about 50 mg/kg. The pharmacokinetic profiles were determined, and the results for dogs are summarized in Table and Table, while the results for rats are summarized in Table and Table below.
as §1, with “500” for “400”, “14.06” for “17.00”, “30.12” for “36.40”
A solution of about 300 mg/mL of the compound of Formula (Ia) having 23.33 w/w % water, 48.99 w/w % PEG 300, 26.47 w/w % of a sodium salt of a compound of Formula (Ia), and 1.21 w/w % poloxamer 188 was prepared. The solution was administered subcutaneously to male beagle dogs at a dose level of about 6 mg/kg and male Wistar Han rats at a dose level of about 50 mg/kg. The pharmacokinetic profiles were determined, and the results for dogs are summarized in Table and Table, while the results for rats are summarized in Table and Table below.
as §1, with “18.80” for “17.00”, “40.25” for “36.40”, “34.38” for “35.20”, “1.57” for “6.40”
as §1, with “500” for “400”, “16.29” for “17.00”, “34.88” for “36.40”, “41.92” for “35.20”, “1.91” for “6.40”
as §1, with “20.90” for “17.00”, “44.72” for “36.40”, “and 34.38” for “35.20”, “(Ia)” for “(Ia), 5.00 w/w % ethanol, and 6.40 w/w % poloxamer 188”
A solution of about 400 mg/mL of the compound of Formula (Ia) having 19.90 w/w % water, 42.59 w/w % PEG 300, 34.38 w/w % of a sodium salt of a compound of Formula (Ia), and 3.13 w/w % poloxamer 188 was prepared. The solution was administered subcutaneously to male beagle dogs at a dose level of about 12 mg/kg and male Wistar Han rats at a dose level of about 50 mg/kg. […]

[1] = beagle dogs, SC 12 mg/kg, 500 mg/mL solution X (5.00% ethanol, 1.91% poloxamer 188), Mean n = 3
[2] = beagle dogs, SC 12 mg/kg, 500 mg/mL solution X (5.00% ethanol, 1.91% poloxamer 188), animals #1-#3

## CC(C)(C#Cc1ccc(-c2ccc(Cl)c3c(NS(C)(=O)=O)nn(CC(F)(F)F)c23)c([C@H](Cc2cc(F)cc(F)c2)NC(=O)Cn2nc(C(F)(F)F)c3c2C(F)(F)[C@@H]2C[C@H]32)n1)S(C)(=O)=O [compound of Formula (Ia)]
[1]
  concentration at 24 h: 39.7 nM
  concentration at 48 h: 44.7 nM
[2]
  concentration at 24 h: 32.8 nM
  concentration at 48 h: 39.8 nM
Beagle dogs, SC 12 mg/kg, 500 mg/mL solution X (5.00% ethanol, 1.91% poloxamer 188), 72.0 h, Mean n = 3
  concentration at 72 h: 36.5 nM
Beagle dogs, SC 12 mg/kg, 500 mg/mL solution X (5.00% ethanol, 1.91% poloxamer 188), 96.0 h, Mean n = 3
  concentration at 96 h: 31.4 nM
Beagle dogs, SC 12 mg/kg, 500 mg/mL solution X (5.00% ethanol, 1.91% poloxamer 188), 168 h, Mean n = 3
  concentration at 168 h: 39.2 nM
Beagle dogs, SC 12 mg/kg, 500 mg/mL solution X (5.00% ethanol, 1.91% poloxamer 188), 336 h, Mean n = 3
  concentration at 336 h: 50.3 nM
Beagle dogs, SC 12 mg/kg, 500 mg/mL solution X (5.00% ethanol, 1.91% poloxamer 188), 504 h, Mean n = 3
  concentration at 504 h: 114 nM
Beagle dogs, SC 12 mg/kg, 500 mg/mL solution X (5.00% ethanol, 1.91% poloxamer 188), 672 h, Mean n = 3
  concentration at 672 h: 110 nM
Beagle dogs, SC 12 mg/kg, 500 mg/mL solution X (5.00% ethanol, 1.91% poloxamer 188), 840 h, Mean n = 3
  concentration at 840 h: 61.4 nM
Beagle dogs, SC 12 mg/kg, 500 mg/mL solution X (5.00% ethanol, 1.91% poloxamer 188), 1008 h, Mean n = 3
  concentration at 1008 h: 68.3 nM
Beagle dogs, SC 12 mg/kg, 500 mg/mL solution X (5.00% ethanol, 1.91% poloxamer 188), 1344 h, Mean n = 3
  concentration at 1344 h: 48.5 nM
Beagle dogs, SC 12 mg/kg, 500 mg/mL solution X (5.00% ethanol, 1.91% poloxamer 188), 1680 h, Mean n = 3
  concentration at 1680 h: 37.7 nM
Beagle dogs, SC 12 mg/kg, 500 mg/mL solution X (5.00% ethanol, 1.91% poloxamer 188), 2016 h, Mean n = 3
  concentration at 2016 h: 23.4 nM
Beagle dogs, SC 12 mg/kg, 500 mg/mL solution X (5.00% ethanol, 1.91% poloxamer 188), 2352 h, Mean n = 3
  concentration at 2352 h: 24.3 nM
Beagle dogs, SC 12 mg/kg, 500 mg/mL solution X (5.00% ethanol, 1.91% poloxamer 188), 2688 h, Mean n = 3
  concentration at 2688 h: 14.6 nM
Beagle dogs, SC 12 mg/kg, 500 mg/mL solution X (5.00% ethanol, 1.91% poloxamer 188), 3024 h, Mean n = 3
  concentration at 3024 h: 14.6 nM
Beagle dogs, SC 12 mg/kg, 500 mg/mL solution X (5.00% ethanol, 1.91% poloxamer 188), 3360 h, Mean n = 3
  concentration at 3360 h: 9.6 nM
Beagle dogs, SC 12 mg/kg, 500 mg/mL solution X (5.00% ethanol, 1.91% poloxamer 188), 3696 h, Mean n = 3
  concentration at 3696 h: 8.6 nM
Beagle dogs, SC 12 mg/kg, 500 mg/mL solution X (5.00% ethanol, 1.91% poloxamer 188), 4032 h, Mean n = 3
  concentration at 4032 h: 8.3 nM
Beagle dogs, SC 12 mg/kg, 500 mg/mL solution X (5.00% ethanol, 1.91% poloxamer 188), 4368 h, Mean n = 3
  concentration at 4368 h: 6.4 nM
400 mg/mL solution AA (6.25% poloxamer 188), read-out: AUC0-24 h
  AUC(0-t): 1.57 ± 0.56 µM·h
400 mg/mL solution AA (6.25% poloxamer 188), read-out: AUC0-168 h
  AUC(0-t): 22.2 ± 7 µM·h
400 mg/mL solution AA (6.25% poloxamer 188), read-out: AUC0-336 h
  AUC(0-t): 46.3 ± 9.4 µM·h
400 mg/mL solution AA (6.25% poloxamer 188), read-out: AUC0-672 h
  AUC(0-t): 108 ± 26 µM·h
400 mg/mL solution AA (6.25% poloxamer 188), read-out: AUC0-1008 h
  AUC(0-t): 149 ± 31 µM·h
400 mg/mL solution AA (6.25% poloxamer 188), read-out: AUC0-1344 h
  AUC(0-t): 171 ± 33 µM·h
400 mg/mL solution AA (6.25% poloxamer 188), read-out: AUC0-2352 h
  AUC(0-t): 195 ± 35 µM·h
400 mg/mL solution AA (6.25% poloxamer 188), read-out: AUC0-3024 h
  AUC(0-t): 200 ± 35 µM·h
400 mg/mL solution AA (6.25% poloxamer 188), read-out: AUC0-3696 h
  AUC(0-t): 208 ± 47 µM·h
400 mg/mL solution Y (water, PEG 300), read-out: AUC0-24 h
  AUC(0-t): 0.996 ± 0.513 µM·h
400 mg/mL solution Y (water, PEG 300), read-out: AUC0-168 h
  AUC(0-t): 9.61 ± 2.6 µM·h
400 mg/mL solution Y (water, PEG 300), read-out: AUC0-336 h
  AUC(0-t): 27.4 ± 1.9 µM·h
400 mg/mL solution Y (water, PEG 300), read-out: AUC0-672 h
  AUC(0-t): 100 ± 7.2 µM·h
400 mg/mL solution Y (water, PEG 300), read-out: AUC0-1008 h
  AUC(0-t): 146 ± 11 µM·h
400 mg/mL solution Y (water, PEG 300), read-out: AUC0-1344 h
  AUC(0-t): 172 ± 16 µM·h
400 mg/mL solution Y (water, PEG 300), read-out: AUC0-2352 h
  AUC(0-t): 200 ± 19 µM·h
400 mg/mL solution Y (water, PEG 300), read-out: AUC0-3024 h
  AUC(0-t): 207 ± 19 µM·h
400 mg/mL solution Y (water, PEG 300), read-out: AUC0-3696 h
  AUC(0-t): 210 ± 18 µM·h
400 mg/mL solution Z (3.13% poloxamer 188), read-out: AUC0-24 h
  AUC(0-t): 1.02 ± 0.58 µM·h
400 mg/mL solution Z (3.13% poloxamer 188), read-out: AUC0-168 h
  AUC(0-t): 10.6 ± 4.9 µM·h
400 mg/mL solution Z (3.13% poloxamer 188), read-out: AUC0-336 h
  AUC(0-t): 30.1 ± 14.8 µM·h
400 mg/mL solution Z (3.13% poloxamer 188), read-out: AUC0-672 h
  AUC(0-t): 92.7 ± 31 µM·h
400 mg/mL solution Z (3.13% poloxamer 188), read-out: AUC0-1008 h
  AUC(0-t): 125 ± 31 µM·h
400 mg/mL solution Z (3.13% poloxamer 188), read-out: AUC0-1344 h
  AUC(0-t): 147 ± 32 µM·h
400 mg/mL solution Z (3.13% poloxamer 188), read-out: AUC0-2352 h
  AUC(0-t): 170 ± 33 µM·h
